Reference: patent publication US20060069132A1, “Azolecarboxamide herbicides” (priority 2004, published 2006)

Columns and labels:
Test in all cases: Test E pre-/postemergence herbicide test
green foxtail = type: in vivo, Setaria viridis
Source text: (§1) Seeds of plant species selected from bipinnate beggarticks (Bidens bipinnata L.), hairy beggarticks (Bidens radiata Thuill.), bermudagrass (Cynodon dactylon (L.) Pers.), Surinam grass (Urochloa decumbens (Staph) R. D. Webster, previously named Brachiaria decumbens Stapf), large crabgrass (Digitaria sanguinalis (L.) Scop.), green foxtail (Setaria viridis (L.) P. Beauv.), goosegrass (Eleusine indica (L.) Gaertn.), johnsongrass (Sorghum halepense (L.) Pers.), kochia (Kochia scoparia (L.) Schrad.), pitted morningglory (Ipomoea lacunosa L.), purple nutsedge (Cyperus rotundus L.), common ragweed (Ambrosia elatior L.), mustard (Brassica nigra (L.) W. D. J. Koch), guineagrass (Panicum maximum Jacq.), dallisgrass (Paspalum dilatatum Poir.), barnyardgrass (Echinochloa crus-galli (L). P. Beauv.), southern sandbur (Cenchrus echinatus L.), common sowthistle (Sonchus oleraceous L.), prickly sida (Sida spinosa L.), Italian ryegrass (Lolium multiflorum Lam.), common purslane (Portulaca oleracea L.), broadleaf signalgrass (Brachiaria platyphylla (Griseb.) Nash), common groundsel (Senecio vulgaris L.), common chickweed (Stellaria media (L.) Vill/Cyr.), tropical spiderwort (Commelina benghalensis L.), annual bluegrass (Poa annua L.), downy bromegrass (Bromus tectorum L.), itchgrass (Rottboellia cochinchinensis (L.) L.f.), quackgrass (Elytrigia repens (L.) Nevski), Canada horseweed (Erigeron Canadensis L.), field bindweed (Convolvulus arvensis L.), spotted spurge (Euphorbia maculata L.), common mallow (Malva sylvestris (=s silvestris) L.), and Russian thistle (Salsola kali L. ssp. Ruthenica (Iljin) Soo) were planted and treated preemergence with test chemicals formulated in a non-phytotoxic solvent mixture which included a surfactant.
(§2) At the same time, plants selected from these weed species were treated with postemergence applications of some of the test chemicals formulated in the same manner. Plants ranged in height from 2 to 18 cm (1- to 4-leaf stage) for postemergence treatments. Treated plants and controls were maintained in a greenhouse for 12 to 14 days, after which time all species were compared to controls and visually evaluated. Plant response ratings, summarized in Table E, are based on a scale of 0 to 100 where 0 is no effect and 100 is complete control. A dash (-) response means no test result.

goosegrass = type: in vivo, Eleusine indica
Source text: as §1, §2

johnsongrass = type: in vivo, Sorghum halepense
Source text: as §1, §2

purple nutsedge = type: in vivo, Cyperus rotundus
Source text: as §1, §2

common ragweed = type: in vivo, Ambrosia elatior
Source text: as §1, §2

guineagrass = type: in vivo, Panicum maximum
Source text: as §1, §2

dallisgrass = type: in vivo, Paspalum dilatatum
Source text: as §1, §2

common purslane = type: in vivo, Portulaca oleracea
Source text: as §1, §2

broadleaf signalgrass = type: in vivo, Brachiaria platyphylla
Source text: as §1, §2

common groundsel = type: in vivo, Senecio vulgaris
Source text: as §1, §2

tropical spiderwort = type: in vivo, Commelina benghalensis
Source text: as §1, §2

annual bluegrass = type: in vivo, Poa annua
Source text: as §1, §2

itchgrass = type: in vivo, Rottboellia cochinchinensis
Source text: as §1, §2

quackgrass = type: in vivo, Elytrigia repens
Source text: as §1, §2

field bindweed = type: in vivo, Convolvulus arvensis
Source text: as §1, §2

common mallow = type: in vivo, Malva sylvestris
Source text: as §1, §2

[1] = Postemergence, 500 g ai/ha, scale 0 to 100
[2] = Postemergence, 250 g ai/ha, scale 0 to 100
[3] = Preemergence, 62 g ai/ha, scale 0 to 100
[4] = Preemergence, 125 g ai/ha, scale 0 (no effect) to 100 (complete control)
[5] = Preemergence, 500 g ai/ha, scale 0 (no effect) to 100 (complete control)
[6] = postemergence, 125 g ai/ha, scale 0 to 100
[7] = postemergence, 62 g ai/ha, scale 0 to 100
[8] = Preemergence, 250 g ai/ha, scale 0 (no effect) to 100 (complete control)
[9] = Preemergence, 125 g ai/ha, scale 0 to 100

## CCn1nc(C(C)(C)C)cc1C(=O)Nc1cc(C(=O)N(C)C)ccc1F [Compound 6, N-[5-[(dimethylamino)carbonyl]-2-fluorophenyl]-3-(1,1-dimethylethyl)-1-ethyl-1H-pyrazole-5-carboxamide]
Green foxtail; [1]
  Plant response rating, Foxtail, Green: 98
Green foxtail; [2]
  Plant response rating, Foxtail, Green: 98
Green foxtail; [3]
  Plant response rating, Foxtail, Green: 95
Green foxtail; [4]
  Plant response rating, Foxtail, Green: 95
Green foxtail; [5]
  Plant response rating, Foxtail, Green: 100
Green foxtail; [6]
  Plant response rating, Foxtail, Green: 90
Green foxtail; [7]
  Plant response rating, Foxtail, Green: 80
goosegrass; [1]
  Plant response rating, Goosegrass: 98
goosegrass; [2]
  Plant response rating, Goosegrass: 98
goosegrass; [3]
  Plant response rating, Goosegrass: 85
goosegrass; [4]
  Plant response rating, Goosegrass: 95
goosegrass; [5]
  Plant response rating, Goosegrass: 100
goosegrass; [6]
  Plant response rating, Goosegrass: 98
goosegrass; [7]
  Plant response rating, Goosegrass: 90
johnsongrass; [1]
  Plant response rating, Johnsongrass: 98
johnsongrass; [2]
  Plant response rating, Johnsongrass: 98
johnsongrass; [3]
  Plant response rating, Johnsongrass: 90
johnsongrass; [4]
  Plant response rating, Johnsongrass: 90
johnsongrass; [8]
  Plant response rating, Johnsongrass: 90
johnsongrass; [5]
  Plant response rating, Johnsongrass: 100
johnsongrass; [6]
  Plant response rating, Johnsongrass: 95
johnsongrass; [7]
  Plant response rating, Johnsongrass: 90
Purple nutsedge; [3]
  Plant response rating, Nutsedge, Purple: 60
Purple nutsedge; [4]
  Plant response rating, Nutsedge, Purple: 100
Purple nutsedge; [8]
  Plant response rating, Nutsedge, Purple: 100
Purple nutsedge; [5]
  Plant response rating, Nutsedge, Purple: 100
Purple nutsedge; [6]
  Plant response rating, Nutsedge, Purple: 95
Purple nutsedge; [7]
  Plant response rating, Nutsedge, Purple: 75
Common ragweed; [1]
  Plant response rating, Ragweed: 95
Common ragweed; [2]
  Plant response rating, Ragweed: 95
Common ragweed; [3]
  Plant response rating, Ragweed: 50
Common ragweed; [4]
  Plant response rating, Ragweed: 80
Common ragweed; [5]
  Plant response rating, Ragweed: 95
Common ragweed; [6]
  Plant response rating, Ragweed: 90
Common ragweed; [7]
  Plant response rating, Ragweed: 75
guineagrass; [1]
  Plant response rating, Guineagrass: 98
guineagrass; [2]
  Plant response rating, Guineagrass: 95
guineagrass; [3]
  Plant response rating, Guineagrass: 95
guineagrass; [4]
  Plant response rating, Guineagrass: 95
guineagrass; [8]
  Plant response rating, Guineagrass: 95
guineagrass; [5]
  Plant response rating, Guineagrass: 100
guineagrass; [6]
  Plant response rating, Guineagrass: 90
guineagrass; [7]
  Plant response rating, Guineagrass: 80
dallisgrass; [1]
  Plant response rating, Dallisgrass: 90
dallisgrass; [2]
  Plant response rating, Dallisgrass: 80
dallisgrass; [3]
  Plant response rating, Dallisgrass: 90
dallisgrass; [4]
  Plant response rating, Dallisgrass: 95
dallisgrass; [8]
  Plant response rating, Dallisgrass: 95
dallisgrass; [5]
  Plant response rating, Dallisgrass: 100
dallisgrass; [6]
  Plant response rating, Dallisgrass: 75
dallisgrass; [7]
  Plant response rating, Dallisgrass: 60
Common purslane; [1]
  Plant response rating, Purslane: 100
Common purslane; [2]
  Plant response rating, Purslane: 100
Common purslane; [3]
  Plant response rating, Purslane: 100
Common purslane; [4]
  Plant response rating, Purslane: 100
Common purslane; [8]
  Plant response rating, Purslane: 100
Common purslane; [5]
  Plant response rating, Purslane: 100
Common purslane; [6]
  Plant response rating, Purslane: 90
Common purslane; [7]
  Plant response rating, Purslane: 75
Broadleaf signalgrass; [1]
  Plant response rating, Signalgrass: 98
Broadleaf signalgrass; [2]
  Plant response rating, Signalgrass: 95
Broadleaf signalgrass; [3]
  Plant response rating, Signalgrass: 75
Broadleaf signalgrass; [4]
  Plant response rating, Signalgrass: 75
Broadleaf signalgrass; [5]
  Plant response rating, Signalgrass: 95
Broadleaf signalgrass; [6]
  Plant response rating, Signalgrass: 90
Broadleaf signalgrass; [7]
  Plant response rating, Signalgrass: 35
Common groundsel; [1]
  Plant response rating, Groundsel: 100
Common groundsel; [2]
  Plant response rating, Groundsel: 100
Common groundsel; [3]
  Plant response rating, Groundsel: 100
Common groundsel; [4]
  Plant response rating, Groundsel: 100
Common groundsel; [5]
  Plant response rating, Groundsel: 100
Common groundsel; [6]
  Plant response rating, Groundsel: 95
Common groundsel; [7]
  Plant response rating, Groundsel: 20
Tropical spiderwort; [1]
  Plant response rating, Spiderwort: 95
Tropical spiderwort; [2]
  Plant response rating, Spiderwort: 90
Tropical spiderwort; [3]
  Plant response rating, Spiderwort: 70
Tropical spiderwort; [4]
  Plant response rating, Spiderwort: 75
Tropical spiderwort; [8]
  Plant response rating, Spiderwort: 80
Tropical spiderwort; [5]
  Plant response rating, Spiderwort: 95
Tropical spiderwort; [6]
  Plant response rating, Spiderwort: 75
Tropical spiderwort; [7]
  Plant response rating, Spiderwort: 60
Annual bluegrass; [1]
  Plant response rating, Bluegrass: 98
Annual bluegrass; [2]
  Plant response rating, Bluegrass: 98
Annual bluegrass; [3]
  Plant response rating, Bluegrass: 100
Annual bluegrass; [4]
  Plant response rating, Bluegrass: 100
Annual bluegrass; [5]
  Plant response rating, Bluegrass: 100
Annual bluegrass; [6]
  Plant response rating, Bluegrass: 98
Annual bluegrass; [7]
  Plant response rating, Bluegrass: 98
itchgrass; [1]
  Plant response rating, Itchgrass: 95
itchgrass; [2]
  Plant response rating, Itchgrass: 95
itchgrass; [3]
  Plant response rating, Itchgrass: 90
itchgrass; [4]
  Plant response rating, Itchgrass: 95
itchgrass; [5]
  Plant response rating, Itchgrass: 95
itchgrass; [6]
  Plant response rating, Itchgrass: 90
itchgrass; [7]
  Plant response rating, Itchgrass: 90
quackgrass; [1]
  Plant response rating, Quackgrass: 98
quackgrass; [2]
  Plant response rating, Quackgrass: 95
quackgrass; [3]
  Plant response rating, Quackgrass: 95
quackgrass; [4]
  Plant response rating, Quackgrass: 100
quackgrass; [5]
  Plant response rating, Quackgrass: 100
quackgrass; [6]
  Plant response rating, Quackgrass: 90
quackgrass; [7]
  Plant response rating, Quackgrass: 80
Field bindweed; [1]
  Plant response rating, Bindweed, Field: 100
Field bindweed; [2]
  Plant response rating, Bindweed, Field: 100
Field bindweed; [3]
  Plant response rating, Bindweed, Field: 30
Field bindweed; [4]
  Plant response rating, Bindweed, Field: 60
Field bindweed; [5]
  Plant response rating, Bindweed, Field: 100
Field bindweed; [6]
  Plant response rating, Bindweed, Field: 95
Field bindweed; [7]
  Plant response rating, Bindweed, Field: 10
Common mallow; [1]
  Plant response rating, Mallow: 100
Common mallow; [2]
  Plant response rating, Mallow: 100
Common mallow; [3]
  Plant response rating, Mallow: 70
Common mallow; [4]
  Plant response rating, Mallow: 100
Common mallow; [5]
  Plant response rating, Mallow: 100
Common mallow; [6]
  Plant response rating, Mallow: 95
Common mallow; [7]
  Plant response rating, Mallow: 65

## Cc1nn(C(C)(C)C)nc1C(=O)Nc1cccc(C(=O)N(C)C)c1 [Compound 391]
Green foxtail; [3]
  Plant response rating, Foxtail, Green: 60
Green foxtail; [9]
  Plant response rating, Foxtail, Green: 80
Green foxtail; [8]
  Plant response rating, Foxtail, Green: 95
Green foxtail; [5]
  Plant response rating, Foxtail, Green: 100
goosegrass; [3]
  Plant response rating, Goosegrass: 30
goosegrass; [9]
  Plant response rating, Goosegrass: 80
goosegrass; [8]
  Plant response rating, Goosegrass: 90
goosegrass; [5]
  Plant response rating, Goosegrass: 95
johnsongrass; [3]
  Plant response rating, Johnsongrass: 40
johnsongrass; [9]
  Plant response rating, Johnsongrass: 60
johnsongrass; [8]
  Plant response rating, Johnsongrass: 85
johnsongrass; [5]
  Plant response rating, Johnsongrass: 100
Purple nutsedge; [8]
  Plant response rating, Nutsedge, Purple: 75
Purple nutsedge; [5]
  Plant response rating, Nutsedge, Purple: 75
Common ragweed; [3]
  Plant response rating, Ragweed: 50
Common ragweed; [9]
  Plant response rating, Ragweed: 75
Common ragweed; [8]
  Plant response rating, Ragweed: 95
Common ragweed; [5]
  Plant response rating, Ragweed: 100
guineagrass; [3]
  Plant response rating, Guineagrass: 60
guineagrass; [9]
  Plant response rating, Guineagrass: 80
guineagrass; [8]
  Plant response rating, Guineagrass: 100
guineagrass; [5]
  Plant response rating, Guineagrass: 100
dallisgrass; [3]
  Plant response rating, Dallisgrass: 60
dallisgrass; [9]
  Plant response rating, Dallisgrass: 80
dallisgrass; [8]
  Plant response rating, Dallisgrass: 95
dallisgrass; [5]
  Plant response rating, Dallisgrass: 95
Common purslane; [3]
  Plant response rating, Purslane: 50
Common purslane; [9]
  Plant response rating, Purslane: 95
Common purslane; [8]
  Plant response rating, Purslane: 100
Common purslane; [5]
  Plant response rating, Purslane: 100
Broadleaf signalgrass; [3]
  Plant response rating, Signalgrass: 40
Broadleaf signalgrass; [9]
  Plant response rating, Signalgrass: 70
Broadleaf signalgrass; [8]
  Plant response rating, Signalgrass: 90
Broadleaf signalgrass; [5]
  Plant response rating, Signalgrass: 90
Common groundsel; [9]
  Plant response rating, Groundsel: 95
Common groundsel; [8]
  Plant response rating, Groundsel: 100
Common groundsel; [5]
  Plant response rating, Groundsel: 100
Tropical spiderwort; [9]
  Plant response rating, Spiderwort: 90
Tropical spiderwort; [8]
  Plant response rating, Spiderwort: 90
Tropical spiderwort; [5]
  Plant response rating, Spiderwort: 95
Annual bluegrass; [3]
  Plant response rating, Bluegrass: 95
Annual bluegrass; [9]
  Plant response rating, Bluegrass: 95
Annual bluegrass; [8]
  Plant response rating, Bluegrass: 95
Annual bluegrass; [5]
  Plant response rating, Bluegrass: 95
itchgrass; [3]
  Plant response rating, Itchgrass: 50
itchgrass; [9]
  Plant response rating, Itchgrass: 80
itchgrass; [8]
  Plant response rating, Itchgrass: 90
itchgrass; [5]
  Plant response rating, Itchgrass: 95
quackgrass; [3]
  Plant response rating, Quackgrass: 40
quackgrass; [9]
  Plant response rating, Quackgrass: 90
quackgrass; [8]
  Plant response rating, Quackgrass: 95
quackgrass; [5]
  Plant response rating, Quackgrass: 95
Field bindweed; [3]
  Plant response rating, Bindweed, Field: 20
Field bindweed; [9]
  Plant response rating, Bindweed, Field: 90
Field bindweed; [8]
  Plant response rating, Bindweed, Field: 90
Field bindweed; [5]
  Plant response rating, Bindweed, Field: 95
Common mallow; [3]
  Plant response rating, Mallow: 80
Common mallow; [9]
  Plant response rating, Mallow: 80
Common mallow; [8]
  Plant response rating, Mallow: 100
Common mallow; [5]
  Plant response rating, Mallow: 100
